Laboratory results published in PubChem BioAssay (NCI).
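1) Cells in 96-well plates. 2) Compound, 48 h, 5 concentrations. 3) Linear interpolation between surrounding doses. 4) Unreached endpoint = highest concentration. At the TGI there is no net growth.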

Tests used:
Assay in all cases: DTP human tumour cell line panel, 48 h
DLD-1 colon = tested on: DLD-1 colon
KM20L2 colon = tested on: KM20L2 colon
DMS 114 small cell lung = tested on: DMS 114 small cell lung
LXFL 529 NSCLC = tested on: LXFL 529 NSCLC
DMS 273 small cell lung = tested on: DMS 273 small cell lung
SNB-78 CNS = tested on: SNB-78 CNS
XF 498 CNS = tested on: XF 498 CNS
RXF-631 renal = tested on: RXF-631 renal
HOP-18 NSCLC = tested on: HOP-18 NSCLC

SMILES | TGI (DLD-1 colon) [µM] | TGI (KM20L2 colon) [µM] | TGI (DMS 114 small cell lung) [µM] | TGI (LXFL 529 NSCLC) [µM] | TGI (DMS 273 small cell lung) [µM] | TGI (SNB-78 CNS) [µM] | TGI (XF 498 CNS) [µM] | TGI (RXF-631 renal) [µM] | TGI (HOP-18 NSCLC) [µM]
Cc1nc2ccc(N=Nc3c(O)ccc4ccccc34)cc2[nH]1 | 66.2 | > 100 | 63 | 37.3 | 33.5 | > 100 |  |  | 
N#Cc1ccc(Nc2cnc3cc(N)ccc3n2)cc1 | > 100 | > 100 | > 100 | > 100 | > 100 | > 100 | > 100 |  | 
COC1=C(C)C(=O)C2C(C1=O)C(c1ccc(OC)c(OC)c1)[C@H]2C (some centres undefined) | > 100 |  |  | > 100 | > 100 | > 100 | > 100 | > 100 | 
O=S1(=O)COc2ccccc2-c2ncncc21 | > 100 | > 100 | > 100 | > 100 |  | > 100 |  | > 100 | > 100
COc1ccc(C2Cc3cc(OC)c(OC)c(OC)c3C2=O)cc1 (centres undefined) | > 100 | > 100 | > 100 |  | > 100 | > 100 |  |  | > 100
CC(C)Cc1ccc(C(C)/C=C2\CCC(CN3CCOCC3)C2=O)cc1 (centres undefined) | 9.36 | 31.5 | 42.4 | 4.09 |  | > 72.8 | 30 | 41.2 | 19.2
COc1ccc(NC(=O)CSc2nnc(Cc3ccccc3)o2)cc1 | > 100 | > 100 | > 100 | > 100 | > 100 | > 100 |  |  | > 100
COc1ccc(Cc2cc(OC)c(OC)c(OC)c2)cc1O | > 100 | > 100 | 0.137 | > 100 | > 100 |  | > 100 | > 100 | > 31.6
Cc1cc(=O)cc2sc3cc(Cl)ccc3nc1-2 | > 100 | 30.1 |  | > 100 | 24.6 | > 100 | 31.3 |  | > 100
COC(=O)C(C(=O)C(=O)Nc1c(Cl)cc([N+](=O)[O-])cc1Cl)c1nc2cc(C)c(C)cc2[nH]c1=O (centres undefined) | > 100 | > 100 | > 100 | > 100 | > 100 | > 100 |  | > 100 | > 100
C=CCOC1=C2CC[C@H](O)[C@@]2(C)CCC1=O | > 100 | > 100 | > 100 | > 100 | > 100 | > 100 |  |  | > 100
Cn1c(=O)c2c(ncn2CCCCn2ccnc2[N+](=O)[O-])n(C)c1=O |  | > 100 | > 100 | > 100 | > 100 | > 100 | > 100 |  | 
CCCCCCCCCCCCCCCCc1c(C(=O)OC)[nH]c(=S)[nH]c1=O | > 50 | > 50 |  | > 50 | > 50 | > 50 | > 50 | > 50 | > 50
Cc1ccc(/C=C/C(=O)c2sc(C(N)=S)nc2C)cc1 | > 100 | > 100 |  |  | > 100 | > 100 |  |  | > 100
CC(=O)N(/N=C\c1ccc([N+](=O)[O-])cc1)c1ccccc1 | > 100 | > 100 | > 100 |  | > 100 | > 100 | > 100 | > 100 | > 100
CNC(=S)NNC(=O)c1c(C)nc2sccn12 | > 100 | > 100 |  | > 100 | > 100 |  | > 100 | > 100 | > 100
O=[N+]([O-])c1ccccc1S(=O)(=O)c1ccccc1[N+](=O)[O-] | > 100 | > 100 | > 100 | > 100 | > 100 | > 100 | 72.4 |  | > 100
O=C(CC(=O)C(=O)CC(=O)OCc1ccccc1)OCc1ccccc1 | > 100 | > 100 | > 100 | > 100 |  |  |  |  | 
CC(C)CC(=O)N1CCN(C(=O)CC(C)C)c2ccccc21 | > 100 | > 100 | > 100 | > 100 | > 100 | > 100 | > 100 | > 100 | > 100
O=C1CCCCC1C1(O)C(=O)Nc2cc(F)ccc21 (centres undefined) | > 100 | > 100 | > 100 | > 100 | > 100 | > 100 | > 100 |  | > 100
Cc1cc(=O)[nH]c(CNC(=O)c2cccc3ccccc23)n1 | > 100 | > 100 |  | > 100 | > 100 | > 100 | > 100 |  | 
CC(=O)NC(ON1C(=O)COc2ccccc21)C(Cl)(Cl)Cl (centres undefined) | > 100 | > 100 |  | > 100 | > 100 | > 100 | > 100 |  | 
COC(=O)C(CCC1(C)OCCO1)C(C)=O (centres undefined) | > 100 | > 100 | > 100 | > 100 | > 100 | > 100 | > 100 | > 100 | > 100
CCN(CC)CC(O)CNc1ccc(NCC(O)CCl)c2c1C(=O)c1ccccc1C2=O (centres undefined) | 38.9 | 18.5 |  | 15.8 | 13.6 | 22.8 | 26.9 |  | 
CSc1nc2nc(C)c(C)nc2c(=O)[nH]1 | > 100 | > 100 | > 100 | > 100 | > 100 |  | > 100 |  | > 100
